Source: ChEMBL document CHEMBL3045227, “Development of 4-aminoquinoline-1,3,5-triazine conjugates as potent antibacterial agent through facile synthetic route” (2013)
≈ marks a conversion by molar mass, not a printed value.

Assays:
Assay type in all cases: functional
Proteus mirabilis = assay: Antibacterial activity against Proteus mirabilis NCIM 2241 assessed as growth inhibition after 24 hr by NCCLS broth dilution method; conditions: NCIM 2241, 24 h
Staphylococcus aureus = assay: Antibacterial activity against Staphylococcus aureus NCIM 2079 assessed as growth inhibition after 24 hr by NCCLS broth dilution method; conditions: NCIM 2079, 24 h
Escherichia coli = assay: Antibacterial activity against Escherichia coli NCIM 2065 assessed as growth inhibition after 24 hr by NCCLS broth dilution method; conditions: NCIM 2065, 24 h
Bacillus subtilis = assay: Antibacterial activity against Bacillus subtilis NCIM 2063 assessed as growth inhibition after 24 hr by NCCLS broth dilution method; conditions: NCIM 2063, 24 h
Pseudomonas aeruginosa = assay: Antibacterial activity against Pseudomonas aeruginosa NCIM 2036 assessed as growth inhibition after 24 hr by NCCLS broth dilution method; conditions: NCIM 2036, 24 h
Bacillus cereus = assay: Antibacterial activity against Bacillus cereus NCIM 2156 assessed as growth inhibition after 24 hr by NCCLS broth dilution method; conditions: NCIM 2156, 24 h
Proteus vulgaris = assay: Antibacterial activity against Proteus vulgaris NCIM 2027 assessed as growth inhibition after 24 hr by NCCLS broth dilution method; conditions: NCIM 2027, 24 h

| MIC (Proteus mirabilis) | MIC (Staphylococcus aureus) | MIC (Escherichia coli) | MIC (Bacillus subtilis) | MIC (Pseudomonas aeruginosa) | MIC (Bacillus cereus) | MIC (Proteus vulgaris) | SMILES |
| --- | --- | --- | --- | --- | --- | --- | --- |
| 12.5 µg/mL (≈ 20.6 µM) | 3.12 µg/mL (≈ 5.15 µM) | 6.25 µg/mL (≈ 10.3 µM) | 6.25 µg/mL (≈ 10.3 µM) | 12.5 µg/mL (≈ 20.6 µM) | 3.12 µg/mL (≈ 5.15 µM) | 3.12 µg/mL (≈ 5.15 µM) | O=[N+]([O-])c1ccc(Nc2nc(N3CCOCC3)nc(N3CCN(C(=S)Nc4ccnc5cc(Cl)ccc45)CC3)n2)cc1 |
| 6.25 µg/mL | 25 µg/mL | 25 µg/mL | 6.25 µg/mL | 12.5 µg/mL | 6.25 µg/mL | 12.5 µg/mL | NNc1nc(Nc2ccc([N+](=O)[O-])cc2)nc(N2CCN(C(=S)Nc3ccnc4cc(Cl)ccc34)CC2)n1.O |
| 12.5 µg/mL (≈ 20.5 µM) | 25 µg/mL (≈ 40.9 µM) | 6.25 µg/mL (≈ 10.2 µM) | 6.25 µg/mL (≈ 10.2 µM) | 6.25 µg/mL (≈ 10.2 µM) | 3.12 µg/mL (≈ 5.11 µM) | 12.5 µg/mL (≈ 20.5 µM) | NC(=S)NNc1nc(Nc2ccc([N+](=O)[O-])cc2)nc(N2CCN(C(=S)Nc3ccnc4cc(Cl)ccc34)CC2)n1 |
| 6.25 µg/mL (≈ 10.2 µM) | 12.5 µg/mL (≈ 20.4 µM) | 12.5 µg/mL (≈ 20.4 µM) | 12.5 µg/mL (≈ 20.4 µM) | 6.25 µg/mL (≈ 10.2 µM) | 3.12 µg/mL (≈ 5.1 µM) | 12.5 µg/mL (≈ 20.4 µM) | O=[N+]([O-])c1ccc(Nc2nc(Nc3ccccc3)nc(N3CCN(C(=S)Nc4ccnc5cc(Cl)ccc45)CC3)n2)cc1 |
| 6.25 µg/mL (≈ 10.5 µM) | 12.5 µg/mL (≈ 21 µM) | 12.5 µg/mL (≈ 21 µM) | 3.12 µg/mL (≈ 5.25 µM) | 12.5 µg/mL (≈ 21 µM) | 6.25 µg/mL (≈ 10.5 µM) | 6.25 µg/mL (≈ 10.5 µM) | NC(=O)NNc1nc(Nc2ccc([N+](=O)[O-])cc2)nc(N2CCN(C(=S)Nc3ccnc4cc(Cl)ccc34)CC2)n1 |
| 12.5 µg/mL (≈ 21 µM) | 25 µg/mL (≈ 42.1 µM) | 12.5 µg/mL (≈ 21 µM) | 25 µg/mL (≈ 42.1 µM) | 12.5 µg/mL (≈ 21 µM) | 12.5 µg/mL (≈ 21 µM) | 25 µg/mL (≈ 42.1 µM) | NCCCNc1nc(Nc2ccc([N+](=O)[O-])cc2)nc(N2CCN(C(=S)Nc3ccnc4cc(Cl)ccc34)CC2)n1 |

Continued, compound first:

| SMILES | MIC (Proteus mirabilis) | MIC (Staphylococcus aureus) | MIC (Escherichia coli) | MIC (Bacillus subtilis) | MIC (Pseudomonas aeruginosa) | MIC (Bacillus cereus) | MIC (Proteus vulgaris) |
| --- | --- | --- | --- | --- | --- | --- | --- |
| Cc1ccc(Nc2nc(Nc3ccc([N+](=O)[O-])cc3)nc(N3CCN(C(=S)Nc4ccnc5cc(Cl)ccc45)CC3)n2)cc1 | 3.12 µg/mL (≈ 4.98 µM) | 12.5 µg/mL (≈ 19.9 µM) | 12.5 µg/mL (≈ 19.9 µM) | 6.25 µg/mL (≈ 9.97 µM) | 6.25 µg/mL (≈ 9.97 µM) | 3.12 µg/mL (≈ 4.98 µM) | 12.5 µg/mL (≈ 19.9 µM) |
| Cc1ccccc1Nc1nc(Nc2ccc([N+](=O)[O-])cc2)nc(N2CCN(C(=S)Nc3ccnc4cc(Cl)ccc34)CC2)n1 | 12.5 µg/mL (≈ 19.9 µM) | 25 µg/mL (≈ 39.9 µM) | 6.25 µg/mL (≈ 9.97 µM) | 12.5 µg/mL (≈ 19.9 µM) | 6.25 µg/mL (≈ 9.97 µM) | 12.5 µg/mL (≈ 19.9 µM) | 25 µg/mL (≈ 39.9 µM) |
| O=[N+]([O-])c1ccc(Nc2nc(Nc3ccc(O)cc3)nc(N3CCN(C(=S)Nc4ccnc5cc(Cl)ccc45)CC3)n2)cc1 | 50 µg/mL (≈ 79.5 µM) | 100 µg/mL (≈ 159 µM) | 50 µg/mL (≈ 79.5 µM) | 25 µg/mL (≈ 39.7 µM) | 25 µg/mL (≈ 39.7 µM) | 25 µg/mL (≈ 39.7 µM) | 50 µg/mL (≈ 79.5 µM) |
| CC1COc2c(N3CCN(C)CC3)c(F)cc3c(=O)c(C(=O)O)cn1c23 (stereo not given) [OFLOXACIN] | 3.12 µg/mL (≈ 8.65 µM) | 6.25 µg/mL (≈ 17.3 µM) | 3.12 µg/mL (≈ 8.65 µM) | 3.12 µg/mL (≈ 8.65 µM) | 6.25 µg/mL (≈ 17.3 µM) | 6.25 µg/mL (≈ 17.3 µM) | 3.12 µg/mL (≈ 8.65 µM) |
